Laboratory results from US20250320190A1, “Novel Inhibitors of Leucine Carboxyl Methyltransferase-1 (LCMT-1) and Methods of Use Thereof” (Temple University-Of The Commonwealth System of Higher …, priority 2024, published 2025).

How the values were obtained:
Jurkat cells = experiment: Radiosensitization assay (Ghost Dye 710 flow cytometry); assay type: cell-based, human; details: 10 Grays
Description: (§1) Jurkat and THP-1 cells were seeded in 6-well plates as described. After 24 hours LCMT-li was added at various concentrations as described. After 3 hours, cells were irradiated at 10 Grays. After 24 hours, cell viability was assessed with Ghost Dye™ 710 staining and flow cytometry as described.

THP-1 cells = experiment: as above; assay type: cell-based, human; details: 10 Grays
Description: as §1

MCF7 cells [1] = experiment: Annexin V assay; assay type: cell-based, human; details: 5-20 μM, 48 hours
Description: (§2) MCF7, MDA-MB-231 and Rosi cells were treated with LB-100 and Compound 2 at 5-20 μM concentrations. After 48 hours, cells were lifted with Accutase and washed twice with PBS (pH 7.4) with 10% FBS. Cells were resuspended in annexin V binding buffer (10 mM HEPES (pH 7.4), 140 mM NaCl and 2.5 mM CaCl2)) and labeled with FITC-anti-Annexin V and 7-AAD (Biolegend, FITC Annexin V Apoptosis Detection Kit with 7-AAD, catalog #640922). Cell surface annexin V expression was assessed with flow cytometry.

MDA-MB-231 cells [2] = experiment: Annexin V assay; assay type: cell-based, human; details: 5-20 μM, 48 hours
Description: as §2

Rosi cells [3] = experiment: Annexin V assay; assay type: cell-based, human; details: 5-20 μM, 48 hours
Description: as §2

rhLCMT-1 = target: T1, rhLCMT-1 (Homo sapiens, UniProt Q9UIC8); experiment: rhLCMT-1 activity assay (dot immunoblot); assay type: biochemical; details: each inhibitor 50 μM; 20 μM SAM; 37° C. for 30 minutes
T1 construct: purchased SignalChem (Richmond, British Columbia, Canada)
Description: Recombinant human LCMT-1 (rhLCMT-1) and rhPP2Ac were obtained from SignalChem (Richmond, British Columbia, Canada). Methyltransferase assays were performed with 100 ng rhLCMT-1 and 91.62 ng rhPP2Ac (2:1 molar ratio) (28) in reaction buffer containing 20 mM Tris (pH 8.0), 50 mM NaCl, 1 mM EDTA. rhLCMT-1 was incubated with Compound 1 (Chemspace, San Jose, California), Compound 2 (Akos Consulting and Solutions, Amtsgericht, Freiburg, Germany) or sinefungin, a SAM analogue, (Active Motif, Carlsbad, California), each at 50 μM final concentration, for 10 minutes at room temperature. rhPP2Ac was added to the reactions with 20 μM (final concentration) SAM (New England Biolabs, Ipswich, Massachusetts, FIG. 9). […] Reactions were incubated at 37° C. for 30 minutes (FIG. 10). Because the inhibitors gave false positive results with the secondary reactions used in colorimetric and bioluminescent methyltansferase assays, LCMT-1 activity was assessed using dot immunoblots. Reactions were applied to nitrocellulose membranes (Cytiva, Marlborough, Massachusetts). […] Membranes were treated with infrared (IR)-dye anti-mouse antibody (Li-Cor, Lincoln, Nebraska, catalog #926-32210, 1:20,000 dilution) and densities were measured with Li-Cor Image Studio (version 5.2) software. rhLCMT-1 inhibition assays were performed three times, each time with five replicates for each condition.

MCF7 cells [4] = experiment: Western blots; assay type: cell-based, human; details: 20 μM
Description: (§3) MCF7, MDA-MB-231 and Rosi cells were treated with Compound 1 or Compound 2 at a concentration of 20 μM in complete medium, and lysates were harvested after 2, 4, 6, 8 and 12 hours in radioimmunoprecipitation assay buffer containing protease inhibitors (Boster Bio, Pleasanton, California, catalog #AR1182-1) and phosphatase inhibitors (Santa Cruz Biotechnology catalog #sc-45044 and #sc-45045). Protein concentrations were measured with a bicinchoninic acid assay (G-Biosciences, Saint Louis, Missouri). Fifty micrograms of each lysate were used for bis-tris polyacrylamide gel electrophoresis. Resolved lysates were transferred to nitrocellulose membranes. Membranes were blocked with TBS with 5% bovine serum albumin before incubation with primary antibodies.
(§4) Antibodies obtained from Cell Signaling Technology (Danvers Massachusetts) were, anti-PP2Ac (catalog #2038, 1:1,000 dilution), anti-phospho-adenosine monophosphate-activated protein kinase (pAMPKα2 threonine 172, catalog #2535, 1:1,000 dilution). Antibodies obtained from Proteintech (Rosemont, Illinois) include anti-phospho-receptor-interacting serine/threonine protein kinase-1 antibodies (pRIPK1 serine 161 (catalog #66854-1-Ig, 1:1,000 dilution) and pRIPK1 serine 166 (catalog #28252-1-AP, 1:10,000 dilution), anti-mixed lineage kinase domain like pseudokinase (MLKL, catalog #66675-1-Ig, 1:5,000 dilution), anti-AMPKα2, anti-phospho-acetyl-coenzyme A carboxylase (pACC1 serine 79, catalog #29119-1-AP, 1:1,000 dilution), anti-ACC1 (catalog #21923-1-AP, 1:2,000 dilution) and anti-β-actin (catalog #66009-1-Ig, 1:50,000 dilution). The anti-RIPKI antibody was obtained from AbClonal (Woburn, Massachusetts, catalog #A7414, 1:750 dilution). The anti-phospho-MLKL antibody was obtained from R&D Systems (Minneapolis, Minnesota, 1:1,000 dilution). The LCMT-1 antibody was obtained from Origene (Rockville, Maryland, catalog #TA503127S, 1:2,000 dilution). Appropriate IR-dye secondary antibodies were used (Alexa Fluor® 790-conjugated anti-mouse (catalog #115-655-146, 1:50,000 dilution), Alexa Fluor® 680-conjugated anti-mouse (catalog #115-625-146, 1:50,000 dilution), and Alexa Fluor® 680-conjugated anti-rabbit (catalog #115-625-144, 1:50,000 dilution) were obtained from Jackson ImmunoResearch Laboratories (West Grove, Pennsylvania). Band densities were normalized to β-actin, the endogenous control. At least five replicates were used for statistical analyses.

MDA-MB-231 cells [5] = experiment: Western blots; assay type: cell-based, human; details: 20 μM
Description: as §3, §4

Rosi cells [6] = experiment: Western blots; assay type: cell-based, human; details: 20 μM
Description: as §3, §4

T1 sequence (Q9UIC8 whole entry): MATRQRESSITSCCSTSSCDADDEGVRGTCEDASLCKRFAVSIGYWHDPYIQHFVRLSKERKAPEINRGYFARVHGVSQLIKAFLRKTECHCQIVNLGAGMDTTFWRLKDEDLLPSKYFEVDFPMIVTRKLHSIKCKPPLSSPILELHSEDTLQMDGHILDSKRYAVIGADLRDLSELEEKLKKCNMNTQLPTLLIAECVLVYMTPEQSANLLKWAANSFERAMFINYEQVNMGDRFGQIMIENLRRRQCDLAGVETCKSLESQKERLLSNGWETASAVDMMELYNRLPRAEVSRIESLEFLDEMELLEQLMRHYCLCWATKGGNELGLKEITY

**Q.** With `COC(=O)c1c(NC(=O)c2ccccc2C)sc(C(=O)Nc2cccc(C)c2)c1C` [Compound 2, methyl 4-methyl-2-[(2-methylbenzoyl)amino]-5-[[(3-methylphenyl)amino]carbonyl]-3-thiophenecarboxylate] as the molecule, how does the radiosensitization (Jurkat cells) read?
**A.** The radiosensitization was “did not demonstrate radiosensitization”.

**Q.** And the radiosensitization (THP-1 cells)?
**A.** Its radiosensitization is “demonstrated LCMT-li radiosensitization”.

**Q.** What about the “apoptosis (cell surface annexin V expression)” value (“apoptosis” for short) (MCF7 cells [1]) of the same molecule?
**A.** The value was “decreased cell surface annexin V”.

**Q.** And the “apoptosis” value (MDA-MB-231 cells [2])?
**A.** Its value is “increased cell surface annexin V expression”.

**Q.** What about the “apoptosis” value (Rosi cells [3]) of the same molecule?
**A.** Its value is “did not induce apoptosis”.

**Q.** What about the “methylation of rhPP2Ac by rhLCMT-1” value (rhLCMT-1) of the same molecule?
**A.** The value was “inhibited methylation of rhPP2Ac to the same degree as the SAM analogue sinefungin”.

**Q.** And the “RIPK1 phosphorylation at serine 161” value (MCF7 cells [4])?
**A.** The value was “did not statistically increase”.

**Q.** And the “phosphorylation of ACC1” value (MCF7 cells [4])?
**A.** The value was “increased phosphorylation of ACC1”.

**Q.** And the “phosphorylation of AMPK” value (MCF7 cells [4])?
**A.** Its value is “Increased phosphorylation of AMPK was not found”.

**Q.** What about the “phosphorylation of MLKL” value (MCF7 cells [4]) of the same molecule?
**A.** The value was “Increased phosphorylation of MLKL was noted”.

**Q.** And the “cytosolic PP2Ab expression” value (MCF7 cells [4]; after 4-6 hours of exposure)?
**A.** The value was “decreased cytosolic PP2Ab expression”.

**Q.** And the PP2Ac methylation (MCF7 cells [4]; lysates after 2, 4, 6, 8 and 12 hours)?
**A.** Its PP2Ac methylation is “did not significantly decrease methylation of PP2Ac”.

**Q.** What about the “RIPK1 phosphorylation at serine 161” value (MDA-MB-231 cells [5]) of the same molecule?
**A.** The value was “increased RIPK1 phosphorylation at serine 161”.

**Q.** What about the “cytosolic PP2Ab expression” value (MDA-MB-231 cells [5]) of the same molecule?
**A.** The value was “did not change cytosolic expression PP2Ab”.

**Q.** And the “phosphorylation of AMPK” value (MDA-MB-231 cells [5])?
**A.** The value was “Increased phosphorylation of AMPK was not found”.

**Q.** And the “phosphorylation of MLKL” value (MDA-MB-231 cells [5])?
**A.** The value was “not in MDA-MB-231 cells”.

**Q.** And the PP2Ac methylation (MDA-MB-231 cells [5]; Compound 2 significant at 4 hours)?
**A.** Its PP2Ac methylation is “decreased PP2Ac methylation”.

**Q.** And the “RIPK1 phosphorylation at serine 161” value (Rosi cells [6])?
**A.** Its value is “increased RIPK1 phosphorylation at serine 161”.

**Q.** What about the “phosphorylation of ACC1” value (Rosi cells [6]) of the same molecule?
**A.** The value was “increased phosphorylation of ACC1”.

**Q.** What about the “phosphorylation of AMPK” value (Rosi cells [6]) of the same molecule?
**A.** Its value is “Increased phosphorylation of AMPK was not found”.

**Q.** And the “phosphorylation of MLKL” value (Rosi cells [6])?
**A.** Its value is “Increased phosphorylation of MLKL was noted”.

**Q.** And the PP2Ac methylation (Rosi cells [6]; Compound 2 significant at 6 hours)?
**A.** Its PP2Ac methylation is “decreased PP2Ac methylation”.

**Q.** What about the “cytosolic PP2Ab expression” value (Rosi cells [6]; after 4-6 hours of exposure) of the same molecule?
**A.** Its value is “decreased cytosolic PP2Ab expression”.
